14 compounds from PubChem BioAssay (NCI) can be followed below.

Some test systems named below: MDA-N; KM20L2 colon; HOP-18 NSCLC; DMS 114 small cell lung; SNB-78 CNS; DLD-1 colon; DMS 273 small cell lung; XF 498 CNS; RXF-631 renal; SN12K1 renal.
What all share (test): NCI anticancer screen, dose series, 48 h

Several values for one entry are separate records, joined by “and”; a condition that tells them apart may be missing. Identical values can stand only once.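 96-well plates; 48 h exposure; 5 concentrations. Endpoints by linear interpolation between flanking doses. Not reached: highest tested concentration assigned. The concentration for 50% growth inhibition is given as GI50. TGI is the concentration that stops growth completely.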 Bounds are passed on as bounds.

In turn, `Cn1c(N)c(N=Nc2ccc(S(N)(=O)=O)cc2)c(=O)n(C)c1=O` had a TGI in the experiment on MDA-N of more than 100 µM.

`COC(=O)C1CCC2(CC1)NC(=O)NC2=O` (stereo not given): the TGI with KM20L2 colon, with HOP-18 NSCLC, with DMS 114 small cell lung, with SNB-78 CNS, in the experiment on DLD-1 colon and in the experiment with DMS 273 small cell lung was more than 100 µM each time. The TGI with XF 498 CNS and in the experiment on RXF-631 renal was more than 100 µM in each case.

For the compound `C[CH2][Ge]1([CH2]C)[CH2]CC2(CCN(CCCN(C)C)C2)C[CH2]1`, the GI50 in the experiment with KM20L2 colon was 2.94 µM; with HOP-18 NSCLC it was 3.19 µM; with DMS 114 small cell lung it was 2.11 µM; in the experiment on DMS 273 small cell lung, 2.4 µM; in the experiment on XF 498 CNS, 1.16 µM; with SN12K1 renal it was 1.97 µM. The GI50 in the experiment with MDA-N is 0.369 µM. For the same compound, the TGI in the experiment with KM20L2 colon is 11 µM; with HOP-18 NSCLC, 8.25 µM; in the experiment on DMS 114 small cell lung, 3.88 µM; in the experiment with DMS 273 small cell lung, 4.57 µM; with XF 498 CNS, 1.45 µM; in the experiment on SN12K1 renal, 4.38 µM. In addition, the TGI with MDA-N is 1.02 µM.

For the compound `NCCN.O=N[O-].O=N[O-].O=N[O-].O=N[O-].[Co+3].[K+]`, the GI50 with KM20L2 colon, in the experiment on DMS 114 small cell lung, in the experiment on SNB-78 CNS and with DLD-1 colon was more than 100 µM throughout. In addition, the TGI in the experiment on KM20L2 colon, in the experiment with DMS 114 small cell lung, in the experiment with SNB-78 CNS and in the experiment on DLD-1 colon was more than 100 µM each time.

As to `CC(=O)OC12CCCCC1C1(CCCC1)NC2=O` (stereo not given), the TGI in the experiment with KM20L2 colon, in the experiment with HOP-18 NSCLC, in the experiment with DMS 114 small cell lung, in the experiment on SNB-78 CNS, in the experiment on DLD-1 colon and in the experiment on XF 498 CNS was more than 100 µM each time.

`CCOc1ccccc1Nc1nc(C)c(C(=O)CC(=O)C(=O)Nc2ccccc2)s1`: the TGI in the experiment with KM20L2 colon, in the experiment on HOP-18 NSCLC, with DMS 114 small cell lung, with SNB-78 CNS, in the experiment with DLD-1 colon and in the experiment with DMS 273 small cell lung was more than 100 µM in each case. The same compound yielded a TGI in the experiment with XF 498 CNS of more than 100 µM.

Take `COc1cccc2c1C(=N)c1c(O)c3c(c(O)c1C2=O)C[C@@](O)(C(C)=O)C[C@@H]3OC1CC(N)C(O)C(C)O1` (stereo not given in full): the TGI with HOP-18 NSCLC was 3.48 µM and 2.56 µM; with DMS 114 small cell lung, 0.73 µM and 1.46 µM; with SNB-78 CNS, 8.68 µM and 18.9 µM; in the experiment with DLD-1 colon, 5.7 µM and 14.9 µM; in the experiment on DMS 273 small cell lung it was 1.65 µM and 1.86 µM; in the experiment with XF 498 CNS it was 2.26 µM and 2.27 µM. The TGI in the experiment on SN12K1 renal stood at 3.05 µM; in the experiment on MDA-N it was 10.4 µM; with RXF-631 renal it was 3.11 µM. Further, the GI50 in the experiment with MDA-N is 1.15 µM.

Take `CC(=O)/C=C\C(=O)NNS(=O)(=O)c1ccc(C)cc1`: the TGI in the experiment on KM20L2 colon, with SNB-78 CNS, with DLD-1 colon, in the experiment with DMS 273 small cell lung, with XF 498 CNS and with RXF-631 renal was more than 100 µM each time.

`Cc1nn(C(=O)CC(=O)Nc2ccccc2Cl)c(C)c1N=Nc1ccccc1Cl`: the TGI with KM20L2 colon, in the experiment with HOP-18 NSCLC, in the experiment on DMS 114 small cell lung, with SNB-78 CNS, with DLD-1 colon and with DMS 273 small cell lung was more than 100 µM in each case. Besides, the TGI in the experiment with XF 498 CNS and in the experiment on RXF-631 renal was more than 100 µM each time.

On to `COc1cc(C2C(C(=O)Nc3ccc(Cl)c(Cl)c3)=C(C)NC(C)=C2C(=O)Nc2ccc(Cl)c(Cl)c2)ccc1O`, for which the TGI in the experiment with KM20L2 colon came out at 54.7 µM; in the experiment on DMS 114 small cell lung, 24.2 µM; in the experiment on SNB-78 CNS, 53.5 µM; with DLD-1 colon, 22.4 µM; in the experiment on XF 498 CNS, 33.1 µM.

Consider `O=C1[C@@H]2C3C=CC([C@H]4C(=O)N(CO)C(=O)[C@@H]34)[C@@H]2C(=O)N1CO`, for which the TGI was more than 31.6 µM in the experiment on KM20L2 colon; 86.4 µM in the experiment on HOP-18 NSCLC; more than 62.2 µM in the experiment with DMS 114 small cell lung; more than 100 µM in the experiment with SNB-78 CNS; more than 74.1 µM with DLD-1 colon; more than 57.3 µM in the experiment with DMS 273 small cell lung. The TGI in the experiment on XF 498 CNS was more than 100 µM.

`O=C1c2ccccc2CC1C1(O)C(=O)Nc2c(Cl)cc(Cl)cc21` (stereo not given): the TGI in the experiment on KM20L2 colon was more than 100 µM; with HOP-18 NSCLC it was more than 100 µM; with DMS 114 small cell lung, 68.8 µM; in the experiment with SNB-78 CNS, more than 100 µM; with DLD-1 colon, more than 100 µM; in the experiment with DMS 273 small cell lung it was more than 100 µM. Moreover, the TGI with XF 498 CNS and with RXF-631 renal was more than 100 µM throughout.

Consider `Nc1n[nH]c(=O)c2c1c(Br)cn2C1OC(CO)C(O)C1O` (stereo not given), for which the TGI in the experiment with KM20L2 colon was more than 100 µM; in the experiment with HOP-18 NSCLC it was 65.6 µM; in the experiment with DMS 114 small cell lung it was 17.8 µM; in the experiment on SNB-78 CNS it was more than 80.5 µM; in the experiment with DLD-1 colon it was more than 25.3 µM; with DMS 273 small cell lung, more than 41.2 µM. The TGI in the experiment with RXF-631 renal was determined as 6.59 µM.

In the case of `COc1ccc(/C=C(\NC(=O)c2ccccc2)c2nc3ccccc3[nH]2)cc1`, the TGI was more than 100 µM in the experiment on KM20L2 colon; 90.6 µM in the experiment with DMS 114 small cell lung; more than 100 µM in the experiment on DLD-1 colon; more than 100 µM in the experiment with DMS 273 small cell lung; 46.2 µM in the experiment with XF 498 CNS.
